A short description of series [1]: Drug uptake in iv dosed CD-1 mouse heart measured after 60 mins by Ex vivo whole body biodistribution based analysis. The series is classed as ADME, organism-based. Conditions: 1 h.
Series [2] in a line: Drug uptake in iv dosed rhesus monkey pons by PET imaging based analysis. The format is ADME, organism-based, Macaca mulatta. Conditions: in vivo.
Series [3] is described as follows: Drug uptake in iv dosed CD-1 mouse lung measured after 60 mins by Ex vivo whole body biodistribution based analysis. The series is classed as ADME, organism-based. Conditions: 1 h.
Series [4] in a line: Drug uptake in iv dosed rhesus monkey striatum measured after 60 mins by PET imaging based analysis. The series is classed as ADME, organism-based, Macaca mulatta. Conditions: in vivo, 1 h.
Series [5] can be described thus: Drug uptake in iv dosed CD-1 mouse small intestine measured after 60 mins by Ex vivo whole body biodistribution based analysis. The format is ADME, organism-based. Conditions: 1 h.
Series [6] is described as follows: Drug uptake in iv dosed Sprague-Dawley rat hippocampus measured for 90 mins by PET imaging based analysis. The format is ADME, organism-based. Conditions: in vivo, 1.5 h.
Series [7] in a line: Drug uptake in iv dosed Sprague-Dawley rat cerebral cortex measured for 90 mins by PET imaging based analysis. The series is classed as ADME, organism-based. Conditions: in vivo, 1.5 h.
Series [8] can be described thus: Drug uptake in iv dosed CD-1 mouse kidney measured after 60 mins by Ex vivo whole body biodistribution based analysis. The series is classed as ADME, organism-based. Conditions: 1 h.
Series [9] can be described thus: Drug uptake in iv dosed Sprague-Dawley rat cerebellum measured for 90 mins by PET imaging based analysis. The format is ADME, organism-based. Conditions: in vivo, 1.5 h.
Series [10] is described as follows: Metabolic stability of the compound in iv dosed Sprague-Dawley rat brain assessed as parent compound remaining measured after 30 mins by radio-HPLC analysis. Conditions: read-out: Stability. The format is ADME, organism-based.
The nature of series [11]: Drug uptake in iv dosed rhesus monkey cerebellum by PET imaging based analysis. The format is ADME, organism-based, Macaca mulatta. Conditions: in vivo.
Series [12] can be described thus: Drug uptake in iv dosed CD-1 mouse pancreas measured after 60 mins by Ex vivo whole body biodistribution based analysis. The series is classed as ADME, organism-based. Conditions: 1 h.
The nature of series [13]: Drug uptake in iv dosed CD-1 mouse liver measured after 60 mins by Ex vivo whole body biodistribution based analysis. The series is classed as ADME, organism-based. Conditions: 1 h.
Series [14] in a line: Drug uptake in iv dosed rhesus monkey hippocampus by PET imaging based analysis. The series is classed as ADME, organism-based, Macaca mulatta. Conditions: in vivo.
Series [15] is described as follows: Metabolic stability of the compound in iv dosed Sprague-Dawley rat plasma assessed as parent compound remaining measured after 30 mins by radio-HPLC analysis. The format is ADME, organism-based. Conditions: read-out: Stability.
A short description of series [16]: Drug uptake in iv dosed rhesus monkey cerebellum measured after 60 mins by PET imaging based analysis. The format is ADME, organism-based, Macaca mulatta. Conditions: in vivo, 1 h.
The nature of series [17]: Drug uptake in iv dosed rhesus monkey striatum by PET imaging based analysis. The series is classed as ADME, organism-based, Macaca mulatta. Conditions: in vivo.
Series [18] in a line: Drug uptake in iv dosed rhesus monkey brain by PET imaging based analysis. The series is classed as ADME, organism-based, Macaca mulatta. Conditions: in vivo.
Series [19] can be described thus: Drug uptake in mouse brain treated with MAGL inhibitor, JNJ-42226314 at 15 mins post-drug administration by PET imaging based analysis. The series is classed as ADME, tissue-based. Conditions: in vivo, 0.25 h.
The nature of series [20]: Drug uptake in iv dosed Sprague-Dawley rat pons measured for 90 mins by PET imaging based analysis. The series is classed as ADME, organism-based. Conditions: in vivo, 1.5 h.
Series [21] is described as follows: Drug uptake in iv dosed Sprague-Dawley rat striatum measured for 90 mins by PET imaging based analysis. The series is classed as ADME, organism-based. Conditions: in vivo, 1.5 h.
Series [22] can be described thus: Metabolic stability of the compound in iv dosed Sprague-Dawley rat plasma assessed as parent compound remaining measured after 60 mins by radio-HPLC analysis. Conditions: read-out: Stability. The series is classed as ADME, organism-based.
Series [23] is described as follows: Drug uptake in iv dosed rhesus monkey pons measured after 60 mins by PET imaging based analysis. The format is ADME, organism-based, Macaca mulatta. Conditions: in vivo, 1 h.
Series [24] in a line: Drug uptake in iv dosed rhesus monkey hippocampus measured after 60 mins by PET imaging based analysis. The series is classed as ADME, organism-based, Macaca mulatta. Conditions: in vivo, 1 h.
The nature of series [25]: Drug uptake in iv dosed rhesus monkey cortex by PET imaging based analysis. The format is ADME, organism-based, Macaca mulatta. Conditions: in vivo.
Series [26] can be described thus: Drug uptake in iv dosed rhesus monkey cortex measured after 60 mins by PET imaging based analysis. The format is ADME, organism-based, Macaca mulatta. Conditions: in vivo, 1 h.
A short description of series [27]: Metabolic stability of the compound in iv dosed Sprague-Dawley rat brain assessed as parent compound remaining measured after 60 mins by radio-HPLC analysis. The format is ADME, organism-based. Conditions: read-out: Stability.
The nature of series [28]: Lipophilicity, logD of the compound by shake flask method. The series is classed as physicochemical. Conditions: octanol/water.
Series [29] concerns the target T1, Fatty-acid amide hydrolase 1 (Mus musculus) (UniProt O08914).
T1 sequence (whole entry): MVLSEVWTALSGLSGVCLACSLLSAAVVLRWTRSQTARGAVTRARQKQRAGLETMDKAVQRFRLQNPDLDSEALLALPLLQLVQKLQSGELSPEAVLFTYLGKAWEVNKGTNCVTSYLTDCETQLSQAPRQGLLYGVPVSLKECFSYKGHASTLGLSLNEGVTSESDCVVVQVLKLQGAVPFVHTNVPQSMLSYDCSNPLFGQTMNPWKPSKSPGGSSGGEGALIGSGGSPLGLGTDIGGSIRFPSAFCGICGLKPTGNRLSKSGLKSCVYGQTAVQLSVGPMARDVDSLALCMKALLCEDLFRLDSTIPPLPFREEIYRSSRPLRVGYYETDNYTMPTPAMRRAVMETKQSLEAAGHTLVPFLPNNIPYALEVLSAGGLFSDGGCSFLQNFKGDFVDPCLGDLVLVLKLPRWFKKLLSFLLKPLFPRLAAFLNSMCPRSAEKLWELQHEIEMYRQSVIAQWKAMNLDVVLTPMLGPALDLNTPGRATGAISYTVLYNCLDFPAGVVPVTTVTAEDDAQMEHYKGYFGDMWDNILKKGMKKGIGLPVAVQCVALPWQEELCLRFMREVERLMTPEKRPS
Nature of the series: Displacement of FP-rhodamine from FAAH in mouse brain membrane fraction preincubated for 30 mins followed by FP-rhodhamine addition for 10 mins by Activity-Based Protein Profiling analysis. Conditions: time 40.0 min. The series is classed as cell membranes.

Series [30] deals with T2, Neutral cholesterol ester hydrolase 1 (Mus musculus) (UniProt Q8BLF1).
T2 sequence (whole entry): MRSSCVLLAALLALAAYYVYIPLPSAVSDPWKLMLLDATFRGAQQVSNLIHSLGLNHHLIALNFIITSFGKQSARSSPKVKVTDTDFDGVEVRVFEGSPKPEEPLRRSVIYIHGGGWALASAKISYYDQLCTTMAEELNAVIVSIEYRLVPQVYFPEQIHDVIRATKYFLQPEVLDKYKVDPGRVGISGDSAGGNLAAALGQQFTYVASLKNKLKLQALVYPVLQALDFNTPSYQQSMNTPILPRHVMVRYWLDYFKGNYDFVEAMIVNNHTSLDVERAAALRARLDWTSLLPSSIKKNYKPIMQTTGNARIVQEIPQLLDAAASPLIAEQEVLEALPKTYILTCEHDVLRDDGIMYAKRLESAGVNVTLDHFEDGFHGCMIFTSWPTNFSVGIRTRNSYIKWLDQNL
In words: Displacement of FP-rhodamine from KIAA1363 in mouse brain membrane fraction preincubated for 30 mins followed by FP-rhodhamine addition for 10 mins by Activity-Based Protein Profiling analysis. Conditions: time 40.0 min. The format is cell membranes.

Series [31] has as its target T3, Monoacylglycerol lipase ABHD6 (Mus musculus) (UniProt Q8R2Y0).
T3 sequence (whole entry): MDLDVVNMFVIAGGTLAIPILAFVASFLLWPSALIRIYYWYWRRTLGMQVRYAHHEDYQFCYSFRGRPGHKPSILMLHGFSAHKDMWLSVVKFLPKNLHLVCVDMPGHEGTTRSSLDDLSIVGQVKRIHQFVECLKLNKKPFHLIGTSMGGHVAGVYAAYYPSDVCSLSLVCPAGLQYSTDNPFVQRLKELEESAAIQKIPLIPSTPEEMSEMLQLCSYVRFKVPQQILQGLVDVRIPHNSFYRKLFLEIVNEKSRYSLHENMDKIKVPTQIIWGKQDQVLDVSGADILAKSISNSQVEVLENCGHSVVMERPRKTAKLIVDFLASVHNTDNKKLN
In words: Displacement of FP-rhodamine from ABHD6 in mouse brain membrane fraction preincubated for 30 mins followed by FP-rhodhamine addition for 10 mins by Activity-Based Protein Profiling analysis. The format is cell membranes. Conditions: time 40.0 min.

Series [32] deals with T4, Lysophosphatidylserine lipase ABHD12 (Mus musculus) (UniProt Q99LR1).
T4 sequence (whole entry): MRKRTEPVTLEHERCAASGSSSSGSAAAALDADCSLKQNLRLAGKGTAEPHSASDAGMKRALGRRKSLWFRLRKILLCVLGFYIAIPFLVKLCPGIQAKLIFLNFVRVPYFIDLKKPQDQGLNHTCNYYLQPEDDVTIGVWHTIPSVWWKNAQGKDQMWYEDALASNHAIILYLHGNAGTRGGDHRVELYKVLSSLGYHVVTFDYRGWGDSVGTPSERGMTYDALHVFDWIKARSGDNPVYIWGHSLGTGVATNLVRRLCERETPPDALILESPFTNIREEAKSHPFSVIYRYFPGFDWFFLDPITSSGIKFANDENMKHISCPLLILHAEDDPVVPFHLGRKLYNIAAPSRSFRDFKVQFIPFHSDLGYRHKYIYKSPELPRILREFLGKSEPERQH
In words: Displacement of FP-rhodamine from ABHD12 in mouse brain membrane fraction preincubated for 30 mins followed by FP-rhodhamine addition for 10 mins by Activity-Based Protein Profiling analysis. The format is cell membranes. Conditions: time 40.0 min.

Activity calls are given as the source filed them. The rule behind the calls is not given here.

Regarding `O=C(c1ccc2c(ccn2-c2ccc([18F])cc2)c1)N1CC(N2CCN(C(=O)c3nccs3)CC2)C1`, the Drug uptake result in [1] is “Not Active”; in series [2] it was “Active”; in [3] it was “Not Active”; in [4] it was “Not Active”; in [5], “Active”; in series [6], “Active”. Besides, the Drug uptake entry in [8] was “Not Active”; in [9], “Active”; in series [11] it was “Active”; in series [12] it was “Not Active”; in [13], “Active”; in series [14], “Active”. In addition, the Drug uptake entry was “Not Active” in series [16]; “Active” in series [17]; “Not Active” in series [19]; “Active” in series [20]; “Active” in [21]; “Not Active” in [23]. The Drug uptake result is recorded as “Not Active” in series [24], “Active” in [25] and “Not Active” in series [26]. Moreover, the SUVmax in [7] is 0.8; in series [18] it was 0.9. The remaining at 0.5 h in [10] was found to be 97%; in series [15], 81%. The remaining at 1 h in series [22] was 56%; in series [27], 94%.
Compound `O=C(c1ccc2c(ccn2-c2ccc(F)cc2)c1)N1CC(N2CCN(C(=O)c3nccs3)CC2)C1` came in with a logD in series [28] of 3.28. The inhibition entry in series [29], in series [30], in [31] and in series [32] was “inactive” throughout.

What is called logD is lipophilicity at a set pH, counting ionised and neutral species.

The values above are taken from ChEMBL document CHEMBL5226342, “Novel Reversible-Binding PET Ligands for Imaging Monoacylglycerol Lipase Based on the Piperazinyl Azetidine Scaffold” (J Med Chem, 2021).
